Laboratory results from patent US5612341A, “Brominated hexahydroxybiphenyl derivatives” (Biotech Research Laboratories, priority 1995, dated 1997).
Values after ≈ are worked out from the molar mass of the structure shown. Like-named read-outs stand apart in the source and are kept apart here.

Tests used:
HIV-1 (IIIB isolate) [1] = conditions: parent compound, comparable to that of DDB; cited from earlier work
[2] = test system: chronically HIV-1 infected promonocytic cell line, U1; assay: Virus expression in chronically HIV-1 infected promonocytic U1 cells (p24 ELISA); assay type: cell-based; conditions: for induction of virus expression / alteration in the level of virus expression: 72 hours; for induction of virus expression: cultured alone; for alteration in the level of virus expression: in presence of PMA
Experimental: Therefore, compounds 4 and 5 were separately added for 72 hours to the chronically HIV-1 infected T cell line, ACH-2, and to the chronically HIV-1 infected promonocytic cell line, U1.
(§1) HIV-1 chronically infected T cell line, ACH-2, ^15 and HIV-1 chronically infected promonocytic cell line, U1 ^16 were continuously maintained in RPMI1640 with 10% fetal calf serum (FCS). For experiments, the cell lines were only used in log-phase of growth. Cells (1×10^6 cells/well) and either various concentrations of 4,5, AZT or media alone were added to 24-well plates in the presence or absence of PMA (10^-8 M). After 72 hours at 37° C. and 5% CO2, an aliquot of the cell-free supernatants was collected and analyzed for p24 antigen by ELISA.

H9 T cell line = assay: Toxicity to uninfected H9 cells (cell count); assay type: cell-based
Experimental: (§2) The H9 T cell line was maintained in continuous culture with complete medium (RPMI and 10% fetal calf serum) at 5% CO2 and 37° C. and was used in experiments only when in log phase of growth. The cells were incubated with HIV-1 (IIIB isolate, TCID50 10^4 IU/mL, at a multiplicity of infection of 0.1-0.01 IU/cell) for 1 hour at 37° C. and 5% CO2. The cells then were washed thoroughly to remove unabsorbed virions and resuspended at 4×10^5 cells/mL in complete medium. Aliquots (1 mL) were placed in wells of 24-well culture plates containing an equal volume of test compound (diluted in the culture medium). After a four day incubation at 37° C., cell density of uninfected cultures was determined by counting cells in a Coulter counter to assess toxicity of the test compound. A p24 antigen ELISA assay was used to determine the level of virus released in the medium of the HIV-infected cultures. The p24 antigen assay uses an HIV-1 anti-p24 specific monoclonal antibody as the capture antibody coated on 96 well plates. Following a sample incubation period, rabbit serum containing antibodies for HIV-1 p24 is used to tag any p24 "captured" onto the microtiter well surface. […] The cut-off for the p24 ELISA assay is 12.5 pg/mL. P24 in the culture medium was quantitated against a standard curve containing known amounts of p24. The effective (EC50) and inhibitory concentrations (for anti-HIV activity and cytotoxicity, respectively) were determined.

[3] = test system: chronically HIV-1 infected T cell line, ACH-2; assay: Virus expression in chronically HIV-1 infected T cell line ACH-2 (p24 ELISA); assay type: cell-based; conditions: 72 hours; for induction of virus expression: cultured alone; for alteration in the level of virus expression: in presence of PMA
Experimental: Data obtained by using chronically HIV-1 infected cell lines that are cultured with a test drug can give a sense of how these compounds may function in vivo if given to a latently HIV- infected individual. Therefore, compounds 4 and 5 were separately added for 72 hours to the chronically HIV-1 infected T cell line, ACH-2, and to the chronically HIV-1 infected promonocytic cell line, U1.
as §1

[4] = biological target: T1, HIV-1 reverse transcriptase (Human immunodeficiency virus type 1 group M subtype B, UniProt P04585); assay: HIV-1 reverse transcriptase, DNA-dependent DNA polymerase associated activity; assay type: biochemical; design: HIV-1 reverse transcriptase was purified; made in house; host or cells: Escherichia coli JM 109 containing pKRT 2 (plasmid provided by W. C. Summers, Yale University); conditions: for inhibitory effect against RT-associated DNA polymerase activity: under certain conditions
Experimental: (§3) HIV-1 reverse transcriptase was purified using Escherichia coli JM 109 containing pKRT 2 kindly provided by W. C. Summers (Yale University).
(§4) Enzyme Assay. All reactions were developed in a total volume of 50 μl containing 50 mMTris HCl pH 7.8, 2 mM MgCl2, 100 μg/mL nuclease-free BSA, 1 mM dithiothreitol, 0.5 O.D.260 unit/mL of template-primer, and 330 nM of [^3 H]dNTP according to Cheng et al.

HIV-1 (IIIB isolate) [5] = assay: microbe, parasite or virus in culture; assay type: cell-based; conditions: for therapeutic index (TI) / Therapeutic Index: 5760 min
Experimental: as §2

[6] = biological target: T2, HIV reverse transcriptase associated RNase H (HIV-1 M:B_HXB2R, UniProt P04585); assay: HIV reverse transcriptase associated RNase H activity; assay type: biochemical
T2 construct: cut from Gag-Pol polyprotein

[7] = biological target: T1, HIV-1 reverse transcriptase; assay: HIV-1 reverse transcriptase, RNA-dependent DNA polymerase associated activity; assay type: biochemical; design: HIV-1 reverse transcriptase was purified; made in house; host or cells: Escherichia coli JM 109 containing pKRT 2 (plasmid provided by W. C. Summers, Yale University); conditions: for HIV-1 reverse transcriptase inhibitory activity: template-primer dependent, result in words; for IC50: mean ± standard deviation of three
Experimental: as §3, §4

[8] = Homo sapiens, H9, Table I, cytotoxicity, uninfected H9 cells, read-out: IC50
[9] = Poly(dA)-olig(dT) as template primer
[10] = Table II, template-primer printed poly(rA)-olig(dT)^10, mean ± standard deviation of three
[11] = Human immunodeficiency virus 1, H9, text, acutely infected H9 cells, read-out: EC50 (anti-HIV activity)
[12] = Human immunodeficiency virus 1, Lymphocyte, Table I, acutely infected H9 lymphocytes, read-out: EC50
[13] = Human immunodeficiency virus 1, Lymphocyte, Table IA, acutely infected H9 lymphocytes, read-out: EC50
[14] = Poly(rA)-poly(dT) as substrate, or Mg^+2 as divalent cation
[15] = Poly(rG)-poly(dC) as substrate, Mn^+2 (0.4 mM)
[16] = template-primer poly(rA)-olig(dT)10
[17] = template-primer poly(rC)-olig(dG)12-18
[18] = T-cell, Table IA, concentration that causes a 50% reduction in total cell number, read-out: IC50
[19] = Human immunodeficiency virus 1, IIIB, Lymphocyte, Table IA, acutely infected H9 lymphocytes, read-out: EC50

Compound	induction of virus expression [2]	alteration in the level of virus expression [2]	p24 ([2]; +Media, 0.0064 μg/mL)	p24 ([2]; +Media, 0.032 μg/mL)	p24 ([2]; +Media, 0.16 μg/mL)	p24 ([2]; +Media, 0.8 μg/mL)	p24 ([2]; +Media, 4 μg/mL)	p24 ([2]; +Media, 20 μg/mL)	p24 ([2]; +PMA, 0.0064 μg/mL)	p24 ([2]; +PMA, 0.032 μg/mL)	p24 ([2]; +PMA, 0.16 μg/mL)	p24 ([2]; +PMA, 0.8 μg/mL)	p24 ([2]; +PMA, 4 μg/mL)	p24 ([2]; +PMA, 20 μg/mL)	IC50 (H9 T cell line; [8])	induction of virus expression [3]	alteration in the level of virus expression [3]	IC50 [4, 9]	Therapeutic Index (HIV-1 (IIIB isolate) [5]; Table IA, ratio IC50/EC50)	IC50 (H9 T cell line; [18])	further results
COc1c(OCc2ccccc2)c(OCc2ccccc2)cc(CO)c1-c1c(CO)cc(OCc2ccccc2)c(OCc2ccccc2)c1OC [Compound 2, 4,4',5,5'-tetrakis(benzyloxy)-6,6'-dimethoxy-2,2'-dihydroxymethyl biphenyl]	–	–	–	–	–	–	–	–	–	–	–	–	–	–	–	–	–	–	–	–	anti-HIV activity (HIV-1 (IIIB isolate) [1]): does possess anti-HIV activity
COC(=O)c1cc(OC)c2c(c1-c1c3c(c(OC)c(Br)c1C(=O)OC)OCO3)OCO2 [Compound 4, 3-Bromo-4,4'-dimethoxy-5,6,5',6'-bimethylenedioxy-2,2'-dimethoxycarbonyl biphenyl]	no increase in the induction of virus expression	no alteration in the level of virus expression	7 pg/mL	10 pg/mL	12 pg/mL	11 pg/mL	11 pg/mL	22 pg/mL	8,314 pg/mL	7,200 pg/mL	7,616 pg/mL	8,774 pg/mL	13,376 pg/mL	10,746 pg/mL	> 100 µg/mL	no increase in the induction of virus expression	no alteration in the level of virus expression	56 nM	190	–	IC50 (H9 T cell line; T-cell, Table IA, concentration that causes a 50% reduction in total cell number): 100 µg/mL (≈ 201 µM); IC50 [4, 10]: 56 ± 3 nM; inhibitory effect against RT-associated DNA polymerase activity [4]: Potent inhibitory effects; therapeutic index (TI) (HIV-1 (IIIB isolate) [5]): 190; EC50 (HIV-1 (IIIB isolate) [5]; [11]): 0.52 µg/mL (≈ 1.05 µM); EC50 (HIV-1 (IIIB isolate) [5]; [12]): 0.52 µg/mL (≈ 1.05 µM); EC50 (HIV-1 (IIIB isolate) [5]; [13]): 0.52 µg/mL (≈ 1.05 µM); Therapeutic Index (HIV-1 (IIIB isolate) [5]; Table I, IC50/EC50): > 190; inhibition of HIV RT associated RNase H activity [6, 14]: no inhibition; inhibition of HIV RT associated RNase H activity [6, 15]: almost equal potency; inhibition of HIV RT associated RNase H activity ([6]; under certain conditions): Potent inhibitory effects; HIV-1 reverse transcriptase inhibitory activity [7]: template-primer HIV-1 reverse transcriptase inhibitory activity; IC50 [7, 16]: 4500 ± 1000 nM; IC50 [7, 17]: 2200 ± 600 nM
COC(=O)c1c(Br)c(OC)c2c(c1-c1c3c(c(OC)c(Br)c1C(=O)OC)OCO3)OCO2 [Compound 5, 3,3'-Dibromo-4,4'-dimethoxy-5,6,5'6'-bimethylenedioxy-2,2'-dimethoxycarbonyl biphenyl]	no increase in the induction of virus expression	no alteration in the level of virus expression	17 pg/mL	15 pg/mL	13 pg/mL	14 pg/mL	16 pg/mL	15 pg/mL	7,590 pg/mL	8,320 pg/mL	9,850 pg/mL	11,482 pg/mL	10,598 pg/mL	10,131 pg/mL	> 100 µg/mL	no increase in the induction of virus expression	no alteration in the level of virus expression	48 nM	> 480	> 100 µg/mL	IC50 [4, 10]: 48 ± 4 nM; inhibitory effect against RT-associated DNA polymerase activity [4]: Potent inhibitory effects; therapeutic index (TI) (HIV-1 (IIIB isolate) [5]): > 480; EC50 (HIV-1 (IIIB isolate) [5]; [11]): 0.23 µg/mL (≈ 0.399 µM); EC50 (HIV-1 (IIIB isolate) [5]; [12]): 0.23 µg/mL (≈ 0.399 µM); EC50 (HIV-1 (IIIB isolate) [5]; [13]): 0.23 µg/mL (≈ 0.399 µM); Therapeutic Index (HIV-1 (IIIB isolate) [5]; Table I, IC50/EC50): > 480; inhibition of HIV RT associated RNase H activity [6, 14]: no inhibition; inhibition of HIV RT associated RNase H activity [6, 15]: almost equal potency; inhibition of HIV RT associated RNase H activity ([6]; under certain conditions): Potent inhibitory effects; HIV-1 reverse transcriptase inhibitory activity [7]: template-primer HIV-1 reverse transcriptase inhibitory activity; IC50 [7, 16]: 1900 ± 900 nM; IC50 [7, 17]: 11000 ± 500 nM
COC(=O)c1cc(-c2cc(C(=O)OC)c3c(c2OC)OCO3)c(OC)c2c1OCO2 [Compound 117, 2,2'-Dimethoxy-3,4,3'4'-bismethylenedioxy-5,5'-dimethoxycarbonyl biphenyl]	–	–	–	–	–	–	–	–	–	–	–	–	–	–	–	–	–	–	–	1.8 µg/mL (≈ 4.3 µM)	EC50 (HIV-1 (IIIB isolate) [5]; Table IA, acutely infected H9 lymphocytes): no inhibition
COC(=O)c1c(Br)c2c(c(OC)c1-c1c(OC)c3c(c(Br)c1C(=O)OC)OCO3)OCO2 [Compound 118, 3,3'-Dibromo-6,6'-dimethoxy-4,5,4,5'-bimethylenedioxy-2,2'-dimethoxycarbonyl biphenyl]	–	–	–	–	–	–	–	–	–	–	–	–	–	–	–	–	–	–	> 1.1	> 100 µg/mL	EC50 (HIV-1 (IIIB isolate) [5]; [19]): 90 µg/mL (≈ 156 µM)
COC(=O)c1c(Br)c2c(c(OC)c1-c1c3c(c(OC)c(Br)c1C(=O)OC)OCO3)OCO2 [Compound 119, 3,3'-Dibromo-4,6'-dimethoxy-5,6,4'5'-bimethylenedioxy-2,2'-dimethoxycarbonyl biphenyl]	–	–	–	–	–	–	–	–	–	–	–	–	–	–	–	–	–	–	> 48	> 100 µg/mL	EC50 (HIV-1 (IIIB isolate) [5]; [19]): 2.1 µg/mL (≈ 3.64 µM)
